Measured values as given in patent US20230140522A1, “COMPOSITION FOR AMELIORATING OR PREVENTING DECREASES IN BONE STRENGTH” (priority 2020, published 2023).

Assays:
[1] = tested on: osteoclast progenitor cell RAW264; assay: Osteoclast number measurement (TRAP staining) after ornithine addition, RAW264; format: cell-based; settings: 50 ng/mL RANKL, 7 days, vs ornithine non-addition
Description: The cells were placed in a T-75 flask using a medium and cultured in a CO2 incubator (5% CO2, 37° C.). The medium was changed every other day, and the cells were collected when they reached 80% confluence and used for the test. Cells were prepared in a test medium at 3x10^3 cells/0.1 mL/well and seeded in a 96 well plate. […] After culturing for 7 days, TRAP staining was performed, and TRAP staining-positive and multinucleated cells were counted, based on which the ability to suppress differentiation into osteoclasts was examined by comparison. The medium was changed every 3-4 days. The test was performed with n=5. The test was a two-sided test with Student’s t-test, and P<0.05 (less than 5% of null hypothesis) or more was judged as significant difference. The data in the graph is shown in mean±standard error.

[2] = tested on: osteoprogenitor cell MC3T3-E1; assay: Alkaline phosphatase activity after ornithine addition, MC3T3-E1, influence of BMP-2 concentration; format: cell-based; settings: ornithine 5 mg/mL, 7 days, vs ornithine no addition
Description: The cells were placed in a 10 cm petri dish using a medium and cultured in a CO2 incubator (5% CO2, 37° C.). The medium was changed every other day, and the cells were collected when they reached 80% confluence and used for the test.
The cells were adjusted with medium to 1.2x10^5 cells/0.2 mL/well and seeded in a 48-well plate. […] After 7 days, the cells were washed once with PBS, 50 µL of 0.1% Triton-X was added, and the mixture was further sonicated for 1 min to prepare a cell lysate. The test was performed with n=4 and the medium was changed every 3-4 days.
ALP activity of the above-mentioned cell lysate was measured by LabAssay ALP. With this kit, ALP activity was measured from the amount of p-nitrophenol per unit amount of protein produced within a given period of time. The amount of protein in the solution was measured using Micro BCA Protein Assay Reagent Kit.
(§1) The test was a two-sided test with Student’s t-test, and P<0.05 (less than 5% of null hypothesis) or more was judged as significant difference. The data in the graph is shown in mean±standard error.

[3] = tested on: osteoporosis-disuse muscle atrophy simultaneous onset mouse model; assay: Gastrocnemius muscle weight, osteoporosis-disuse muscle atrophy simultaneous onset mouse model; format: in vivo; settings: OVX mice with cast fixation, ornithine 1% blended feed, vs OVX (ornithine non-administration with cast fixation) group
[4] = tested on: osteoprogenitor cell MC3T3-E1; assay: Osteocalcin (osteoblast differentiation marker) production amount after ornithine addition, MC3T3-E1; format: cell-based; settings: ornithine 5.0 mg/mL, 14 days culture, culture supernatant, vs no addition of ornithine
Description: (§2) The cells were adjusted with medium to 1.2x10^5 cells/0.2 mL/well and seeded in a 48-well plate. […] After culturing for 7 days, the cells were washed once with PBS for ALP activity measurement and then cryopreserved together with the plate. In addition, after culturing for 14 days, the culture supernatant was sampled for measurement of the amount of osteocalcin used in the below-mentioned Experimental Example 2, and cryopreserved. The test was performed with n=5 and the medium was changed every 3-4 days.
For the measurement of the amount of osteocalcin in the culture supernatant, the supernatant was diluted 10-fold and the measurement was performed using Mouse Osteocalcin EIA kit.
as §1

[5] = tested on: osteoprogenitor cell MC3T3-E1; assay: Alkaline phosphatase (osteoblast differentiation marker) activity after ornithine addition, MC3T3-E1; format: cell-based; settings: 7 days culture, vs no addition of ornithine
Description: The cells were placed in a T-75 flask using a medium and cultured in a CO2 incubator (5% CO2, 37° C.). The medium was changed every other day, and the cells were collected when they reached 80% confluence and used for the test.
as §2
The cells were washed with PBS and lysed with 60 µL/well of cell lysing agent (Cell-LyEX1 containing 2 mM PMSF). After stirring the plate at room temperature for 30 min, the supernatant was diluted 5-fold and the obtained solution was used as a sample for measurement. ALP activity in the cells was measured by LabAssay ALP. With this kit, ALP activity was measured from the amount of p-nitrophenol per unit amount of protein produced within a given period of time. The amount of protein in the solution was measured using Micro BCA Protein Assay Reagent Kit.
as §1

Q: Cl.NCCC[C@H](N)C(=O)O [ornithine, L-Ornithine Monohydrochloride] was tested. Which number of osteoclasts ([1]; ornithine 0.02 mg/mL) did it give?
A: decreased

Q: What about the number of osteoclasts ([1]; ornithine 0.1 mg/mL) of the same compound?
A: significantly decreased

Q: And the number of osteoclasts ([1]; ornithine 0.5 mg/mL)?
A: significantly decreased

Q: What about the alkaline phosphatase activity ([2]; BMP-2 50 ng/mL) of the same compound?
A: significantly increased

Q: And the alkaline phosphatase activity ([2]; BMP-2 100 ng/mL)?
A: significantly increased

Q: And the alkaline phosphatase activity ([2]; BMP-2 200 ng/mL)?
A: significantly increased

Q: And the “gastrocnemius muscle weight (per body weight)” value [3]?
A: increased

Q: What about the osteocalcin production amount [4] of the same compound?
A: significantly increased

Q: What about the alkaline phosphatase activity ([5]; ornithine 0.2 mg/mL) of the same compound?
A: significantly increased

Q: And the alkaline phosphatase activity ([5]; ornithine 1.0 mg/mL)?
A: significantly increased

Q: And the alkaline phosphatase activity ([5]; ornithine 5.0 mg/mL)?
A: significantly increased
